According to patent US20060211697A1, “2-(2 Or 4-substituted aryloxy)-phenol derivatives as antibacterial agents” (priority 2004, published 2006):
Values after ≈ are worked out from the molar mass of the structure shown. Like-named read-outs stand apart in the source and are kept apart here.

Experiments:
S. pneumoniae 11733 = test: MIC, broth dilution method, S. pneumoniae; format: cell-based
Description: (§1) Minimum Inhibition Concentration (MIC), Broth Dilution Method:
(§2) The compounds of the present invention were tested against an assortment of Gram positive and Gram negative organisms using standard microtitration techniques well known to those skilled in the art. Cultures of bacteria are initially brought up from the freezer by streaking a loopful onto agar plates under the appropriate conditions. For instance bacterial stocks are streaked onto chocolate agar and then incubated for 18 hours at 35-37° C. in a 5% CO2 incubator. Five to ten colonies are picked from the chocolate agar plate for subculture to Brain-Heart infusion (BHI) broth, Mueller Hinton broth, or BHI containing 4% serum and incubated under the appropriate conditions. The ability of the test compound to act as an antimicrobial is determined by the ability to inhibit bacterial growth in vitro. The optical density of the culture of organisms in the presence of an active compound is compared to the optical density of the same organism untreated. The activity of the compounds is described as either negative or the lowest concentration inhibiting growth (Minimum Inhibitory Concentration [MIC]).

S. aureus 29213 = test: MIC, broth dilution method, S. aureus; format: cell-based
Description: as §1, §2

E. coli 43888 = test: MIC, broth dilution method, E. coli; format: cell-based
Description: as §1, §2

H. influenzae 43095 = test: MIC, broth dilution method, H. influenzae; format: cell-based
Description: as §1, §2

[1] = Streptococcus pneumoniae, 11733, Gram-positive bacteria, in vitro, broth dilution, read-out: MIC S. pneumoniae 11733
[2] = Staphylococcus aureus, 29213, Gram-positive bacteria, in vitro, broth dilution, read-out: MIC S. aureus 29213
[3] = Escherichia coli, 43888, Gram-negative bacteria, in vitro, broth dilution, read-out: MIC E. coli 43888
[4] = Haemophilus influenzae, 43095, Gram-negative bacteria, in vitro, broth dilution, read-out: MIC H. influenzae 43095

O=C(O)c1nc(-c2ccccc2Oc2ccc(F)cc2O)no1
melting point: 127 to 128 °C

Nc1nnc(-c2ccccc2Oc2ccc(F)cc2O)s1 [Example 22, 2-[2-(5-Amino-[1,3,4]thiadiazol-2-yl)-phenoxy]-5-fluoro-phenol]
MIC (S. pneumoniae 11733; [1]): 25 µg/mL (≈ 82.4 µM) | MIC (S. aureus 29213; [2]): 12.5 µg/mL (≈ 41.2 µM) | MIC (E. coli 43888; [3]): > 25 µg/mL | melting point: 250 to 255 °C (dec.) | MIC (H. influenzae 43095; [4]): > 25 µg/mL

Cc1ccc(Oc2ccc(-c3noc(=O)[nH]3)cc2)c(O)c1
melting point: 195 to 198 °C

Cc1ccc(Oc2ccccc2/C(N)=N/O)c(O)c1
melting point: 85 to 87 °C

Cc1ccc(Oc2ccc(-c3nnc(N)s3)cc2)c(O)c1 [Example 23, 2-[4-(5-Amino-[1,3,4]thiadiazol-2-yl)-phenoxy]-5-methyl-phenol]
MIC (S. pneumoniae 11733; [1]): 12.5 µg/mL (≈ 41.8 µM) | MIC (S. aureus 29213; [2]): 1.6 µg/mL (≈ 5.34 µM) | MIC (E. coli 43888; [3]): 25 µg/mL (≈ 83.5 µM) | melting point: 240 to 243 °C (dec.) | MIC (H. influenzae 43095; [4]): > 25 µg/mL

Cc1ccc(Oc2ccc(C3NCCS3)cc2)c(O)c1 (stereo not shown) [Example 5, 5-Methyl-2-[4-(thiazolidin-2-yl)-phenoxy]-phenol]
MIC (S. pneumoniae 11733; [1]): 4 µg/mL (≈ 13.9 µM) | MIC (S. aureus 29213; [2]): 0.5 µg/mL (≈ 1.74 µM) | MIC (E. coli 43888; [3]): 4 µg/mL (≈ 13.9 µM) | melting point: 197 to 199 °C | MIC (H. influenzae 43095; [4]): 0.125 µg/mL (≈ 0.435 µM)

COC(=O)c1cn(-c2ccccc2Oc2ccc(C)cc2O)nn1
melting point: 153 to 155 °C

Cc1ccc(Oc2ccc(-c3ccsc3)cc2O)c(O)c1
melting point: 143 to 145 °C

N/C(=N\O)c1ccccc1Oc1ccc(F)cc1O
melting point: 64 to 65 °C

COC(=O)C1CSC(c2ccc(Oc3ccc(C)cc3O)cc2)N1 (stereo not shown)
melting point: 134 to 135 °C

Cc1ccc(Oc2ccc([N+](=O)[O-])cc2-c2noc(C(=O)O)n2)c(O)c1 [Example 39, 3-[2-(2-Hydroxy-4-methyl-phenoxy)-5-nitro-phenyl]-[1,2,4]oxadiazole-5-carboxylic acid]
MIC (S. pneumoniae 11733; [1]): > 32 µg/mL | MIC (S. aureus 29213; [2]): 0.5 µg/mL (≈ 1.4 µM) | MIC (E. coli 43888; [3]): 4 µg/mL (≈ 11.2 µM) | MIC (H. influenzae 43095; [4]): 8 µg/mL (≈ 22.4 µM)

Cc1ccc(Oc2ccccc2-c2noc(=O)[nH]2)c(O)c1
melting point: 213 to 214 °C

CCOC(=O)c1cnn(-c2ccccc2Oc2ccc(C)cc2O)c1
melting point: 118 to 119 °C

Cc1ccc(Oc2ccc(-c3nnn[nH]3)cc2)c(O)c1 [Example 13, 5-Methyl-2-[4-(1H-tetrazol-5-yl)-phenoxy]-phenol and 5-methyl-2-[4-(2H-tetrazol-5-yl)-phenoxy]-phenol]
MIC (S. pneumoniae 11733; [1]): 7.9 µg/mL (≈ 29.4 µM) | MIC (S. aureus 29213; [2]): 7.9 µg/mL (≈ 29.4 µM) | MIC (E. coli 43888; [3]): 62.5 µg/mL (≈ 233 µM) | melting point: 173 to 175 °C | MIC (H. influenzae 43095; [4]): 2 µg/mL (≈ 7.46 µM)

O=C(O)c1nc(-c2ccccc2Oc2ccc(Cl)cc2O)no1 [Example 54, 3-[2-(4-Chloro-2-hydroxy-phenoxy)-phenyl]-[1,2,4]oxadiazole-5-carboxylic acid]
MIC (S. pneumoniae 11733; [1]): 3.1 µg/mL (≈ 9.32 µM) | MIC (S. aureus 29213; [2]): 0.05 µg/mL (≈ 0.15 µM) | MIC (E. coli 43888; [3]): 0.2 µg/mL (≈ 0.601 µM) | MIC (H. influenzae 43095; [4]): 0.2 µg/mL (≈ 0.601 µM)

Cc1ccc(Oc2ccc(C3NC(C(=O)O)CS3)cc2)c(O)c1 (stereo not shown) [Example 7, 2-[4-(2-Hydroxy-4-methyl-phenoxy)-phenyl]-thiazolidine-4-carboxylic acid]
MIC (S. pneumoniae 11733; [1]): 1 µg/mL (≈ 3.02 µM) | MIC (S. aureus 29213; [2]): 0.25 µg/mL (≈ 0.754 µM) | MIC (E. coli 43888; [3]): 4 µg/mL (≈ 12.1 µM) | melting point: 172 to 174 °C (dec.) | MIC (H. influenzae 43095; [4]): 1 µg/mL (≈ 3.02 µM)

Cc1ccc(Oc2ccc(C3NC(C(=O)O)CCS3)cc2)c(O)c1 (stereo not shown) [Example 8, 2-[4-(2-Hydroxy-4-methyl-phenoxy)-phenyl]-[1, 3]thiazinane-4-carboxylic acid]
MIC (S. pneumoniae 11733; [1]): 4 µg/mL (≈ 11.6 µM) | MIC (S. aureus 29213; [2]): 0.5 µg/mL (≈ 1.45 µM) | MIC (E. coli 43888; [3]): 4 µg/mL (≈ 11.6 µM) | melting point: 140 to 145 °C (dec.) | MIC (H. influenzae 43095; [4]): 0.5 µg/mL (≈ 1.45 µM)

Cc1ccc(Oc2ccccc2-c2noc(C(=O)O)n2)c(O)c1 [Example 37, 3-[2-(2-Hydroxy-4-methyl-phenoxy)-phenyl]-[1,2,4]oxadiazole-5-carboxylic acid]
MIC (S. pneumoniae 11733; [1]): 8 µg/mL (≈ 25.6 µM) | MIC (S. aureus 29213; [2]): 0.125 µg/mL (≈ 0.4 µM) | MIC (E. coli 43888; [3]): 0.5 µg/mL (≈ 1.6 µM) | MIC (H. influenzae 43095; [4]): 0.5 µg/mL (≈ 1.6 µM)

CCOC(=O)c1nc(-c2ccccc2Oc2ccc(F)cc2O)no1
melting point: 82 to 83 °C

Cc1ccc(Oc2ccc([N+](=O)[O-])cc2-c2nnn[nH]2)c(O)c1 [Example 16, 5-Methyl-2-[4-nitro-2-(1H-tetrazol-5-yl)-phenoxy]-phenol and 5-methyl-2-[4-nitro-2-(2H-tetrazol-5-yl)-phenoxy]-phenol]
MIC (S. pneumoniae 11733; [1]): 7.9 µg/mL (≈ 25.2 µM) | MIC (S. aureus 29213; [2]): 2 µg/mL (≈ 6.38 µM) | MIC (E. coli 43888; [3]): 31.3 µg/mL (≈ 99.9 µM) | MIC (H. influenzae 43095; [4]): 31.3 µg/mL (≈ 99.9 µM)

COC(=O)c1cn(-c2ccc(Oc3ccc(C)cc3O)cc2)nn1
melting point: 148 to 151 °C

Cc1ccc(Oc2ccccc2NN)c(O)c1 [Example 66, 2-(2-Hydrazino-phenoxy)-5-methyl-phenol]
MIC (S. pneumoniae 11733; Streptococcus pneumoniae, 11733, read-out: MIC S. pneumoniae 11733): 3.1 µg/mL (≈ 13.5 µM) | MIC (S. aureus 29213; Staphylococcus aureus, 29213, read-out: MIC S. aureus 29213): 0.1 µg/mL (≈ 0.434 µM) | MIC (E. coli 43888; Escherichia coli, 43888, read-out: MIC E. coli 43888): 0.8 µg/mL (≈ 3.47 µM) | MIC (H. influenzae 43095; Haemophilus influenzae, 43095, read-out: MIC H. influenzae 43095): 0.1 µg/mL (≈ 0.434 µM)

CCOC(=O)c1cnn(-c2ccc(Oc3ccc(C)cc3O)cc2)c1 [Example 69, 1-[4-(2-Hydroxy-4-methyl-phenoxy)-phenyl]-1H-pyrazole-4-carboxylic acid ethyl ester]
MIC (S. pneumoniae 11733; [1]): > 25 µg/mL | MIC (S. aureus 29213; [2]): 0.2 µg/mL (≈ 0.591 µM) | MIC (E. coli 43888; [3]): 1.6 µg/mL (≈ 4.73 µM) | MIC (H. influenzae 43095; [4]): > 25 µg/mL

Cc1ccc(Oc2ccc(-c3cccs3)cc2O)c(O)c1 [Example 3, 2-(2-Hydroxy-4-methyl-phenoxy)-5-(thiophen-2-yl)-phenol]
MIC (S. pneumoniae 11733; [1]): 1 µg/mL (≈ 3.35 µM) | MIC (S. aureus 29213; [2]): 4 µg/mL (≈ 13.4 µM) | MIC (E. coli 43888; [3]): 15.7 µg/mL (≈ 52.6 µM) | melting point: 91 to 92 °C | MIC (H. influenzae 43095; [4]): 4 µg/mL (≈ 13.4 µM)

Oc1cc(F)ccc1Oc1ccc(-c2ccco2)cc1O [Example 12, 5-(Furan-2-yl)-2-(4-fluoro-2-hydroxy-phenoxy)-phenol]
MIC (S. pneumoniae 11733; [1]): 0.5 µg/mL (≈ 1.75 µM) | MIC (S. aureus 29213; [2]): 4 µg/mL (≈ 14 µM) | MIC (E. coli 43888; [3]): 2 µg/mL (≈ 6.99 µM) | MIC (H. influenzae 43095; [4]): 7.9 µg/mL (≈ 27.6 µM)

Oc1cc(Cl)ccc1Oc1ccc(Cl)cc1-c1nnn[nH]1 [Example 19, 5-chloro-2-[4-Chloro-2-(1H-tetrazol-5-yl)-phenoxy]-phenol and 5-chloro-2-[4-chloro-2-(2H-tetrazol-5-yl)-phenoxy]-phenol]
MIC (S. pneumoniae 11733; [1]): 2 µg/mL (≈ 6.19 µM) | MIC (S. aureus 29213; [2]): 0.125 µg/mL (≈ 0.387 µM) | MIC (E. coli 43888; [3]): 4 µg/mL (≈ 12.4 µM) | MIC (H. influenzae 43095; [4]): 2 µg/mL (≈ 6.19 µM)

Cc1ccc(Oc2ccccc2-c2nnn[nH]2)c(O)c1 [Example 14, 5-Methyl-2-[2-(1H-tetrazol-5-yl)-phenoxy]-phenol and 5-methyl-2-[2-(2H-tetrazol-5-yl)-phenoxy]-phenol]
MIC (S. pneumoniae 11733; [1]): 2 µg/mL (≈ 7.46 µM) | MIC (S. aureus 29213; [2]): 0.002 µg/mL (≈ 0.00746 µM) | MIC (E. coli 43888; [3]): 0.125 µg/mL (≈ 0.466 µM) | melting point: 205 to 207 °C | MIC (H. influenzae 43095; [4]): 0.125 µg/mL (≈ 0.466 µM)

Cc1ccc(Oc2ccc(-n3cccc3)cc2)c(O)c1
melting point: 95 to 96 °C

Oc1ccccc1Oc1ccc(-c2ccsc2)cc1O [Example 1, 2-(2-Hydroxy-phenoxy)-5-(thiophen-3-yl)-phenol]
MIC (S. pneumoniae 11733; [1]): 2 µg/mL (≈ 7.03 µM) | MIC (S. aureus 29213; [2]): 4 µg/mL (≈ 14.1 µM) | MIC (E. coli 43888; [3]): 15.7 µg/mL (≈ 55.2 µM) | melting point: 114 to 116 °C | MIC (H. influenzae 43095; [4]): 2 µg/mL (≈ 7.03 µM)

Oc1ccccc1Oc1ccccc1-c1nnn[nH]1 [Example 20, 2-[2-(1H-Tetrazol-5-yl)-phenoxy]-phenol and 2-[2-(2H-tetrazol-5-yl)-phenoxy]-phenol]
MIC (S. pneumoniae 11733; [1]): 4 µg/mL (≈ 15.7 µM) | MIC (S. aureus 29213; [2]): 0.25 µg/mL (≈ 0.983 µM) | MIC (E. coli 43888; [3]): 2 µg/mL (≈ 7.87 µM) | MIC (H. influenzae 43095; [4]): 4 µg/mL (≈ 15.7 µM)

Cc1ccc(Oc2ccc(C3NC(C(=O)O)CCS3)cc2C#N)c(O)c1 (stereo not shown) [Example 10, 2-[3-Cyano-4-(2-hydroxy-4-methyl-phenoxy)-phenyl]-[1,3]thiazinane-4-carboxylic acid]
MIC (S. pneumoniae 11733; [1]): 2 µg/mL (≈ 5.4 µM) | MIC (S. aureus 29213; [2]): 2 µg/mL (≈ 5.4 µM) | MIC (E. coli 43888; [3]): 4 µg/mL (≈ 10.8 µM) | melting point: 147 to 150 °C (dec.) | MIC (H. influenzae 43095; [4]): 2 µg/mL (≈ 5.4 µM)

Oc1cc(Cl)ccc1Oc1ccccc1-c1ncon1 [Example 57, 5-Chloro-2-(2-[1,2,4]oxadiazol-3-yl-phenoxy)-phenol]
MIC (S. pneumoniae 11733; [1]): 6.2 µg/mL (≈ 21.5 µM) | MIC (S. aureus 29213; [2]): 0.05 µg/mL (≈ 0.173 µM) | MIC (E. coli 43888; [3]): 0.05 µg/mL (≈ 0.173 µM) | MIC (H. influenzae 43095; [4]): 0.05 µg/mL (≈ 0.173 µM)

Cc1ccc(Oc2ccc([N+](=O)[O-])cc2-c2ncon2)c(O)c1
melting point: 159 to 160 °C
